Experimental data reported in publication PMC9571290, “Preliminary Structure–Activity Relationship Study of the MMV Pathogen Box Compound MMV675968 (2,4-Diaminoquinazoline) Unveils Novel Inhibitors of Trypanosoma brucei brucei” (Molecules, 2022).
Read-outs that look alike come from different tables or passages of the source.

Columns and labels:
[1] = tested on: bloodstream forms of Trypanosoma brucei brucei; assay: resazurin-based antitrypanosomal inhibition assay; assay type: cell-based; details: for pIC50 T. b. b.: Table 3
Protocol: Parasites were axenically cultivated in sterile vented flasks containing complete Hirumi’s modified Iscove’s medium 9 (HMI-9) [500 mL IMDM (Iscove’s modified Dulbecco’s medium) (Gibco, Waltham, MA, USA) supplemented with 10% (v/v) heat-inactivated fetal bovine serum (HIFBS) (Sigma Aldrich), 10% (v/v) serum plus (Sigma Aldrich), HMI-9 supplement (1 mM hypoxanthine, 0.16 mM thymidine, 50 µM bathocuproine disulfonic acid, 1.5 mM cysteine, 1.25 Mm pyruvic acid, 0.2 mM 2-mercaptoethanol (Sigma Aldrich)), and 1% (v/v) penicillin–streptomycin (Sigma Aldrich) and incubated at 37 °C in a 5% CO2 atmosphere.
The in vitro inhibitory potency of the 400 MMVPB compounds against bloodstream forms of Trypanosoma brucei brucei was evaluated using the resazurin-based inhibition assay as previously described. Briefly, parasites at their mid-logarithmic growth phase were counted, and the cell density was adjusted with fresh complete HMI-9 medium to 2 × 10^5 trypanosomes per mL. Then, 90 µL of parasite suspension was then distributed into the wells of 96-well flat-bottomed plates containing 10 µL of compounds for a final test concentration of 10 µM. […] Each assay plate was set up in duplicate and repeated two times. The percent parasite inhibition was determined for each compound based on fluorescence readouts relative to the mean fluorescence of negative control wells.
y = 100/[1+ 10^(logIC50/99-x)H], where H is the hill coefficient or slope factor [60].

in vitro = details: African green monkey
Protocol: (§1) The resulting pellet was resuspended and counted in a Neubauer chamber in the presence of trypan blue to exclude nonviable cells colored in blue. Once the cell load was estimated, they were either used for the next passage in a new flask or processed for the cytotoxicity assay.
(§2) Briefly, Vero cells at a density of 10^4 cells per well were plated in 100 µL of complete DMEM and incubated overnight to allow cell attachment. Plates were then controlled under an inverted fluorescence microscope (Lumascope LS520) to ensure adherence, sterility and cell integrity. Thereafter, culture medium from each well was carefully emptied, and plates were filled with 90 µL of fresh complete medium followed by the addition of 10 µL of serial 5-fold dilutions of compound solutions. […] Fluorescence was then read using a Magelan Infinite M200 fluorescence multiwell plate reader (Tecan) with excitation and emission wavelengths of 530 and 590 nm, respectively. The percentage of cell viability was calculated from readouts, and the median cytotoxic concentration (CC50) for each compound was deduced from concentration–response curves using GraphPad Prism 8.0 software as described above. Selectivity indexes were then determined for each test substance as follows: SI = CC50(Vero cells)/IC50(T. brucei brucei).

Vero cells = assay: cytotoxicity against Vero cells (resazurin viability assay); details: read-out: CC50 Vero; Table 3
Protocol: as §1, §2

[2] = Trypanosoma brucei, Table 4, analogs of MMV675968, solid material, read-out: IC50 ± SD T. b. b.
[3] = Trypanosoma brucei, Table 4, negative log of IC50 in molar, read-out: pIC50 T. b. b. (converted)
[4] = Table 3, MMVPB compounds with known potency against other diseases, read-out: IC50 ± SD T. b. b.

SMILES	IC50 [1, 4]	pIC50 T. b. b. ([1]; negative log of IC50 in molar)	CC50 (Vero cells)	other results
COc1ccc(NCc2ccc3nc(N)nc(N)c3c2Cl)cc1OC [Analog 2]	–	–	–	IC50 [1, 2]: 2.4 ± 0.07 µM; IC50 [1, 3]: 2.4 µM; CC50 at 48 h (in vitro): 18.2 ± 3.08 µM
COc1ccccc1NCc1ccc2nc(N)nc(N)c2c1Cl [Analog 3]	–	–	–	IC50 [1, 2]: 3.2 ± 0.03 µM; IC50 [1, 3]: 3.24 µM; CC50 at 48 h (in vitro): 20.4 ± 0.7 µM
COc1ccc(NCc2ccc3nc(N)nc(N)c3c2Cl)cc1 [Analog 4]	–	–	–	IC50 [1, 2]: 2.5 ± 0.15 µM; IC50 [1, 3]: 2.51 µM; CC50 at 48 h (in vitro): 16.9 ± 0.2 µM
Cc1ccccc1NCc1ccc2nc(N)nc(N)c2c1Cl [Analog 5]	–	–	–	IC50 [1, 2]: 2.3 ± 0.2 µM; IC50 [1, 3]: 2.29 µM; CC50 at 48 h (in vitro): > 100 µM
COc1ccc(NCc2ccc3nc(N)nc(N)c3c2)cc1OC [Analog 6]	–	–	–	IC50 [1, 2]: 0.56 ± 0.07 µM; IC50 [1, 3]: 0.562 µM; CC50 at 48 h (in vitro): > 100 µM
COc1ccc(NCc2ccc3nc(N)nc(N)c3c2)cc1 [Analog 8]	–	–	–	IC50 [1, 2]: 0.25 ± 0.01 µM; IC50 [1, 3]: 0.251 µM; CC50 at 48 h (in vitro): 30.9 ± 2.3 µM
Cc1ccccc1NCc1ccc2nc(N)nc(N)c2c1 [Analog 9]	–	–	–	IC50 [1, 2]: 0.19 ± 0.003 µM; IC50 [1, 3]: 0.191 µM; CC50 at 48 h (in vitro): 22 ± 1.3 µM
COc1ccc(NC(=O)c2ccc3nc(N)nc(N)c3c2)cc1 [Analog 11]	–	–	–	IC50 [1, 2]: 4 ± 1.3 µM; IC50 [1, 3]: 3.98 µM; CC50 at 48 h (in vitro): 22.9 ± 0.5 µM
COc1ccc(NC(=O)c2ccc3nc(N)nc(N)c3c2)cc1OC [Analog 12]	–	–	–	IC50 [1, 2]: > 10 µM; CC50 at 48 h (in vitro): > 100 µM
COc1ccccc1NC(=O)c1ccc2nc(N)nc(N)c2c1 [Analog 13]	–	–	–	IC50 [1, 2]: 3.2 ± 0.3 µM; IC50 [1, 3]: 3.24 µM; CC50 at 48 h (in vitro): > 100 µM
COc1cccc(CNC(=O)c2ccc3nc(N)nc(N)c3c2)c1 [Analog 14]	–	–	–	IC50 [1, 2]: 2.5 ± 0.13 µM; IC50 [1, 3]: 2.51 µM; CC50 at 48 h (in vitro): > 100 µM
Cc1ccccc1NC(=O)c1ccc2nc(N)nc(N)c2c1 [Analog 15]	–	–	–	IC50 [1, 2]: > 10 µM; CC50 at 48 h (in vitro): > 100 µM
COc1ccccc1NCc1cnc(N)nc1N [Analog 16]	–	–	–	IC50 [1, 2]: > 10 µM; CC50 at 48 h (in vitro): > 100 µM
COc1cc(NC(C)CCCN)c2ncccc2c1 (stereo not drawn) [MMV000023, Primaquine, reference compound]	–	–	–	IC50 ([1]; Trypanosoma brucei, Table 1, reference drugs included in MMVPB, read-out: IC50 ± SD T. b. b.): 8.4 ± 0.01 µM; IC50 ([1]; Trypanosoma brucei, Table 1, negative log of IC50 in molar, read-out: pIC50 T. b. b. (converted)): 8.51 µM
CNCCC(Oc1ccc(C(F)(F)F)cc1)c1ccccc1 (stereo not drawn) [MMV001561, fluoxetine, reference compound]	–	–	–	CC50 at 48 h (in vitro): 41.5 ± 1 µM
CN(C)c1cc(NC(=O)Nc2ccccc2)c2ccccc2n1 [MMV006901]	8.45 ± 0.05 µM	5.07	14.6 ± 0.02 µM	–
COc1cc(-c2cc(-c3ccc(S(C)(=O)=O)cc3)cnc2N)ccc1O [MMV010576]	1.5 ± 0.3 µM	5.82	> 100 µM	–
COc1ccc(CCN2CCC(NCc3cccc(N(C)C)c3)CC2)cc1 [MMV011511]	8.94 ± 0.7 µM	5.05	> 100 µM	–
Cc1cc(Nc2ccncc2)n2nc(C)c(-c3ccccc3Cl)c2n1 [MMV016136]	8.61 ± 0.3 µM	5.06	–	–
COc1ccc(-c2cncc3ccc(C(=O)NCCCn4ccnc4)nc23)cc1 [MMV020670]	1.9 ± 0.02 µM	5.72	–	–
CN1CCC(NCc2cccc(-c3ccc(S(=O)(=O)NCc4ccccc4)cc3)c2)CC1 [MMV022029]	1.7 ± 0.7 µM	5.76	13.1 ± 0.2 µM	–
O=C(Nc1ccc(N2CCNCC2)cc1)c1ccn2ncc(-c3cccc(Cl)c3)c2n1 [MMV022478]	1.7 ± 0.01 µM	5.76	11.42 ± 0.07 µM	–
Nc1nccc2ccc(-c3ccc4nccn4c3)cc12 [MMV023233]	8.43 ± 0.06 µM	5.07	29.8 ± 0.7 µM	–
c1cncc(NCc2ccc(-c3cc4ccncc4cc3OC3CCNCC3)s2)c1 [MMV023969]	8.09 ± 0.3 µM	5.09	26.3 ± 0.4 µM	–
O=C(Nc1ccccc1)c1ccc(-c2cc3ccncc3cc2OC2CCNCC2)s1 [MMV024035]	1.8 ± 0.1 µM	5.74	35.75 ± 0.08 µM	–
Cc1ccc2[nH]c(C3CCCNC3)c(-c3ccncc3)c2c1 (stereo not drawn) [MMV024311]	9.78 ± 0.2 µM	5.00	–	–
O=C(Nc1ccc(N2CCNCC2)nc1)c1oc(-c2ccccc2)nc1C(F)(F)F [MMV024937]	1.4 ± 0.5 µM	5.85	14.6 ± 0.6 µM	–

SMILES	IC50 [1, 4]	pIC50 T. b. b. ([1]; negative log of IC50 in molar)	CC50 (Vero cells)	other results
OCCc1ccc(Nc2nccc(-c3nnc4ccccn34)n2)cc1 [MMV028694]	1.8 ± 0.1 µM	5.74	10.36 ± 0.1 µM	–
CC(=O)N1CCc2cc3nc(C)cc(C)c3cc21 [MMV054312]	1.29 ± 0.42 µM	5.88	> 100 µM	–
Cc1cc(C)nc(-n2nc(C)cc2Nc2ccccc2)n1 [MMV062221]	1.7 ± 0.6 µM	5.76	–	–
O=C(C(Cc1c[nH]c2ccccc12)NS(=O)(=O)c1ccc(Cl)cc1)N1CCCCC1 (stereo not drawn) [MMV085210]	0.9 ± 0.1 µM	–	> 100 µM	–
CCOC(=O)c1c(NC(=O)c2c(F)c(F)c(F)c(F)c2F)sc(C(N)=O)c1C [MMV153413]	1.7 ± 0.1 µM	5.76	> 100 µM	–
CC(C)(C)c1cnc(NC(=O)c2ccccc2O)s1 [MMV495543]	0.7 ± 0.25 µM	–	–	–
Brc1cncc(-c2cc(NCCCn3ccnc3)nc(-c3ccccc3)n2)c1 [MMV661713]	1.9 ± 0.02 µM	5.72	> 100 µM	–
O=C(NCCN1CCCC1)c1cc(NCCCCN2CCC(F)(F)CC2)nc2ccc(Cl)cc12 [MMV667494]	1.3 ± 0.5 µM	5.88	> 100 µM	–
COc1ccc(N(CCc2cccc(C)n2)C(=O)C2CCCCC2)cc1 [MMV675996]	0.8 ± 0.02 µM	–	–	–
CC(Oc1ccccc1)C(=O)Nc1nc(-c2ccccn2)cs1 (stereo not drawn) [MMV676411]	9.44 ± 0.09 µM	5.02	–	–
O=C(Nc1nc(-c2ccccn2)cs1)c1cncn1-c1ccccc1 [MMV676512]	1.9 ± 0.07 µM	5.72	–	–
NC(=O)c1cc(-c2ccsc2)ccc1OCCOc1ccccc1 [MMV687138]	0.5 ± 0.01 µM	–	> 100 µM	–
Nc1nc2cc(-c3cncc(Oc4ccc(F)cc4)c3)ccc2[nH]1 [MMV687248]	0.5 ± 0.07 µM	–	> 100 µM	–
Cn1c(=O)c2c(S(C)(=O)=O)snc2n(C)c1=O [MMV687251]	1.9 ± 0.01 µM	5.72	6.4 ± 2 µM	–
COc1cccc(-c2nc3c(N4CCCC4)cccc3n2CC2CCCN2)n1 (stereo not drawn) [MMV687703]	1.7 ± 0.06 µM	5.76	> 100 µM	–
Cc1cnc(N2CCN[C@@H](Cc3ccccc3)C2)nc1Oc1ccc(-n2ccnc2)cc1 [MMV687765]	2.3 ± 0.3 µM	5.64	> 100 µM	–
O=C(Nc1ccc(C(F)(F)F)c(C(F)(F)F)c1)c1cc(Cl)ccc1O [MMV687807]	0.5 ± 0.04 µM	–	11 ± 1.3 µM	–
CN1CCN(CCCOc2ncc(Nc3ncc(-c4ccc(C(F)(F)F)c(F)c4)nc3C(N)=O)cn2)CC1 [MMV687812]	1.7 ± 0.1 µM	5.76	2.66 ± 0.3 µM	–
CCc1ccc(S(=O)(=O)Nc2cc(CN3CCN(CCC(C)C)CC3)ccc2C)cc1 [MMV688124]	2.9 ± 0.08 µM	5.53	> 100 µM	–
CC(C)n1nc(-c2cc3c(Cl)cccc3[nH]2)c2c(N)ncnc21 [MMV688417]	4.38 ± 0.9 µM	5.36	13.6 ± 2.9 µM	–
CN1CCC(c2cc(-c3ccncc3)c(-c3ccc(F)cc3)[nH]2)CC1 [MMV688703]	3.18 ± 1.3 µM	5.49	–	–
CS(=O)(=O)c1ccc(C(=O)N(CC2CCCO2)c2nc3ccccc3s2)cc1[N+](=O)[O-] (stereo not drawn) [MMV688761]	8.33 ± 0.09 µM	5.08	> 100 µM	–
CNc1nnc(Sc2cnn(-c3ccccc3)c(=O)c2Cl)s1 [MMV688763]	0.8 ± 0.1 µM	–	8.14 ± 0.01 µM	–
Cc1[nH]c2ccccc2c1C(c1cccs1)N1CCN(C)CC1 (stereo not drawn) [MMV688768]	8.36 ± 0.08 µM	5.07	> 100 µM	–
CCOc1ccc2cc(-c3nn(CC4CCN(C)CC4)c4ncnc(N)c34)ccc2c1 [MMV688854]	8.5 ± 0.06 µM	5.07	13.4 ± 1.5 µM	–
COc1cc([C@@H]2c3cc4c(cc3[C@H](O)[C@H]3COC(=O)[C@H]23)OCO4)cc(OC)c1OC [Podophyllotoxin, reference compound]	–	–	–	CC50 at 48 h (in vitro): 0.43 ± 0.14 µM
